US12410207B2, “Galactoside inhibitor of galectins” (GALECTO BIOTECH AB, priority 2019, dated 2025)

Assays:
Galectin-1 = Galectin-1 (Homo sapiens, UniProt P09382); test: Fluorescence anisotropy assay, inhibition of galectin / fluorescein tagged saccharide probe interaction; settings: compound as inhibitor of probe binding
Protocol: (§1) The affinity of Example 1-45 for galectins were determined by a fluorescence anisotropy assay where the compound was used as an inhibitor of the interaction between galectin and a fluorescein tagged saccharide probe as described Sörme, P., Kahl-Knutsson, B., Huflejt, M., Nilsson, U. J., and Leffler H. (2004) Fluorescence polarization as an analytical tool to evaluate galectin-ligand interactions. Anal. Biochem. 334: 36-47, (Sorme et al., 2004) and Monovalent interactions of Galectin-1 By Salomonsson, Emma; Larumbe, Amaia; Tejler, Johan; Tullberg, Erik; Rydberg, Hanna; Sundin, Anders; Khabut, Areej; Frejd, Torbjorn; Lobsanov, Yuri D.; Rini, James M.; et al, From Biochemistry (2010), 49(44), 9518-9532, (Salomonsson et al., 2010).

Galectin-3 = Galectin-3 (Homo sapiens, UniProt P17931); test: as above; settings: compound as inhibitor of probe binding
Chain of Galectin-3 (P17931 whole entry, species assumed): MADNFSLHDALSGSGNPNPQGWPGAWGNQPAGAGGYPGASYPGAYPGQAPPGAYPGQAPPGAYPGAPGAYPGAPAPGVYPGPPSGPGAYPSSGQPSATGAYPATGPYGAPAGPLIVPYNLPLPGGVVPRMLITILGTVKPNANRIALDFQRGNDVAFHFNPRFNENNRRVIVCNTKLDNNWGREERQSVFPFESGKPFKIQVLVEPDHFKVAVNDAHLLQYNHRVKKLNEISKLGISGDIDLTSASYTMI
Protocol: as §1

Chain of Galectin-1 (P09382 whole entry, species assumed): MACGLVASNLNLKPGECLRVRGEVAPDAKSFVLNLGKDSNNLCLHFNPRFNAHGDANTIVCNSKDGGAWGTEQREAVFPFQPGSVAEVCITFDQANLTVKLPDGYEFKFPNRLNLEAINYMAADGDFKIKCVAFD

Kd (Galectin-1)	Kd (Galectin-3)	Compound
0.18 µM	63 µM	COC1C(n2cc(-c3csc(O)n3)cn2)[C@@H](O)C(CO)O[C@@H]1Sc1ccc(Cl)c(Cl)c1 (stereo partly drawn) [Example 42, 3,4-Dichlorophenyl 3-deoxy-3-[4-(2-hydroxythiazol-4-yl)-1H-1,2-pyrazol-1-yl]-2-O-methyl-1-thio-α-D-galactopyranoside]
19.2 µM	0.012 µM	O=C(c1ccc(Cl)cc1S[C@H]1OC(CO)[C@H](O)C(n2cc(-c3cc(F)c(Cl)c(F)c3)cn2)C1O)N1CCC1 (stereo partly drawn) [Example 9, 2-(N-azetidinyl-carbonyl)-5-chlorophenyl 3-[4-(4-chloro-3,5-difluorophenyl)-1H-1,2-pyrazol-1-yl]-3-deoxy-1-thio-α-D-galactopyranoside]
48 µM	0.02 µM	N#Cc1ccc(Cl)cc1S[C@H]1OC(CO)[C@H](O)C(n2cc(-c3cc(F)c(Cl)c(F)c3)cn2)C1O (stereo partly drawn) [Example 8, 5-Chloro-2-cyanophenyl 3-[4-(4-chloro-3,5-difluorophenyl)-1H-1,2-pyrazol-1-yl]-3-deoxy-1-thio-α-D-galactopyranoside]
6.1 µM	10.3 µM	OCC1O[C@H](Sc2cncc(Cl)c2)C(O)C(n2cc(-c3ncco3)cn2)[C@H]1O (stereo partly drawn) [Example 24, 5-Chloropyridin-3-yl 3-deoxy-3-[4-(oxazol-2-yl)-1H-1,2-pyrazol-1-yl]-1-thio-α-D-galactopyranoside]
6.8 µM	0.015 µM	O=C(c1ccc(Cl)cc1S[C@H]1OC(CO)[C@H](O)C(n2cc(-c3cc(F)c(F)c(F)c3)cn2)C1O)N1CCC1 (stereo partly drawn) [Example 10, 2-(N-azetidinyl-carbonyl)-5-chlorophenyl 3-deoxy-3-[4-(3,4,5-trifluorophenyl)-1H-1,2-pyrazol-1-yl]-1-thio-α-D-galactopyranoside]
4.1 µM	1.6 µM	OCC1O[C@H](Sc2cncc(Cl)c2)C(O)C(n2cc(-c3ccc(F)cn3)cn2)[C@H]1O (stereo partly drawn) [Example 19, 5-Chloropyridin-3-yl 3-deoxy-3-[4-(5-fluoropyridin-2-yl)-1H-1,2-pyrazol-1-yl]-1-thio-α-D-galactopyranoside]
> 100 µM	2 µM	OC[C@H]1O[C@H](Sc2ccc(Cl)c(Cl)c2)[C@H](O)[C@@H](c2nc(-c3cc(F)c(F)c(F)c3)cs2)[C@H]1O [Example 40, 3,4-Dichlorophenyl 3-deoxy-3-[4-(3,4,5-trifluorophenyl)-thiazol-2-yl]-1-thio-α-D-galactopyranoside]
9.8 µM	0.024 µM	N#Cc1ccc(Cl)cc1S[C@H]1OC(CO)[C@H](O)C(n2cc(-c3cc(F)c(F)c(F)c3)cn2)C1O (stereo partly drawn) [Example 11, 5-Chloro-2-cyanophenyl 3-deoxy-3-[4-(3,4,5-trifluorophenyl)-1H-1,2-pyrazol-1-yl]-1-thio-α-D-galactopyranoside]
8.9 µM	12.7 µM	OCC1O[C@H](Sc2cncc(Cl)c2)C(O)C(n2cc(-c3cc[nH]n3)cn2)[C@H]1O (stereo partly drawn) [Example 21, 5-Chloropyridin-3-yl 3-deoxy-3-[4-(1H-1,2-pyrazol-3-yl)-1H-1,2-pyrazol-1-yl]-1-thio-α-D-galactopyranoside]
2.3 µM	9.9 µM	OCC1O[C@H](Sc2cncc(Cl)c2)C(O)C(n2cc(-c3nccs3)cn2)[C@H]1O (stereo partly drawn) [Example 26, 5-Chloropyridin-3-yl 3-deoxy-3-[4-(thiazol-2-yl)-1H-1,2-pyrazol-1-yl]-1-thio-α-D-galactopyranoside]
12.3 µM	0.69 µM	OCC1O[C@H](Sc2cncc(Cl)c2)C(O)C(n2cc(-c3cccc(F)n3)cn2)[C@H]1O (stereo partly drawn) [Example 18, 5-Chloropyridin-3-yl 3-deoxy-3-[4-(6-fluoropyridin-2-yl)-1H-1,2-pyrazol-1-yl]-1-thio-α-D-galactopyranoside]
19.9 µM	0.27 µM	OCC1O[C@H](Sc2cccc(Cl)c2)C(O)C(n2cc(-c3cccc(F)c3)cn2)[C@H]1O (stereo partly drawn) [Example 1, 3-Chlorophenyl 3-deoxy-3-[4-(3-fluorophenyl)-1H-1,2-pyrazol-1-yl]-1-thio-α-D-galactopyranoside]
